Assay results published in US20250375406A1, “TREATMENT OF NON-ALCOHOLIC STEATOHEPATITIS AND NON-ALCOHOLIC FATTY LIVER DISEASE” (VEROSCIENCE LLC, priority 2022, published 2025).

What was measured:
NASH = assay: L-DOPA plus pantethine with or without curcumin in high fat high fructose diet mice, Study 2 (Example 4); format: in vivo; conditions: vehicle value assigned 1.0 (maximum score); 3 weeks treatment
Source text: After 3 weeks on the test diet, animals were sacrificed for analyses of body weight, body fat, blood glucose, and liver physiology.

NASH Mice = assay: Treatment of NASH mice (high fat high fructose diet) with bromocriptine citrate plus pantethine with or without curcumin, Study 1; format: in vivo; conditions: vehicle value assigned 1.0 (maximum score); 6 weeks treatment
Method: The curcumin-phosphatidylcholine mixture is stirred until clear while being heated to between 50° C. to 60C. Optionally, add up to 10 ml of water and stir until solution is homogeneous)) (100 mg/kg). […] After 6 weeks on the test diet and treatment, animals were sacrificed for analyses of body weight, body fat, blood glucose, and liver physiology.

N[C@@H](Cc1ccc(O)c(O)c1)C(=O)O [L-DOPA, 3,4-dihydroxyphenylalanine]
NASH propensity score (liver weight x body weight x body fat x blood glucose level) (NASH): 0.61

CC(C)C[C@H]1C(=O)N2CCC[C@H]2[C@]2(O)O[C@](NC(=O)[C@@H]3C=C4c5cccc6[nH]c(Br)c(c56)C[C@H]4N(C)C3)(C(C)C)C(=O)N12 [bromocriptine, 2-bromo-α-ergocriptine]
NASH propensity scale score (liver weight x body weight x body fat x liver triglyceride content x blood glucose level) (NASH Mice): 0.46
